The experiment deals with T1, rat α3β4 nAChR (Rattus norvegicus, UniProt P04757+P12392).
T1 construct: expressed in transfected cells; host or cells: HEK293 (rα3β4-HEK293, kept under G-416 selection)
Put plainly: Calcium influx assay (dual agonist/antagonist, FLIPR calcium 6) in HEK293 cells expressing rat α3β4 nAChR. The class given is cell-based. As for the experimental part:
FIGS. 2A-2B show dual agonist/antagonist fluorescence assays. […] For agonist assays, 12 concentrations of test compounds were added to the cells ([…], final concentrations).
FIGS. 3A-3B show concentration response curves. […] Each concentration-response point represents a minimum of two technical replicates and three biological replicates. EC50, Emax, and IC50 values were calculated from corresponding concentration-response curves fitted using the logistical curve in OriginPro.
Assay Description. HEK293 cells expressing the rat α3β4 nAChR were loaded with an intracellular, calcium-sensitive dye. Activation of the receptor results in an increase in the intracellular calcium concentration and a corresponding increase in fluorescent signal. Multiple concentrations of test compounds were first applied to the rα3β4-HEK293 cells and monitored for their ability to activate α3β4 nAChRs.
Cell culture. […] For fluorescence assays, the cells were seeded into 96-well flat bottom, black wall plates, at a density of approximately 50,000 cells per well in 75 μL of media.
Cells seeded at this density grew into a confluent monolayer in 24 h. Ca^2+ fluorescence assays. Ca^2+ uptake was determined using a FLIPR calcium 6 assay.
For dye loading, the fluorescent dye was reconstituted in 10 mL assay buffer according to the manufacturer's protocol. 75 μL of the dye solution was added to each well and the plate was incubated at 37° C. for 1 h. Plates were then transferred to a FlexStation 3 maintained at 37° C.
Dual Agonist/AntagonistAssay. […] For agonist assays, 12 concentrations of test compounds were added to the cells ([…], final concentrations).
Once again, the fluorescence measured for 28 seconds prior to addition and 90 seconds afterwards.
Data reduction. […] Each concentration-response point represents a minimum of two technical replicates and three biological replicates. EC50, Emax, and IC50 values were calculated from corresponding concentration-response curves (see FIGS. 3A-3B) fitted using the logistical curve in OriginPro.

The mark [1] stands for this setting: Example 5, α3β4 nAChR, read-out: IC50.

Read-outs that look alike come from different tables or passages of the source.

T1 sequence (P04757 26-499): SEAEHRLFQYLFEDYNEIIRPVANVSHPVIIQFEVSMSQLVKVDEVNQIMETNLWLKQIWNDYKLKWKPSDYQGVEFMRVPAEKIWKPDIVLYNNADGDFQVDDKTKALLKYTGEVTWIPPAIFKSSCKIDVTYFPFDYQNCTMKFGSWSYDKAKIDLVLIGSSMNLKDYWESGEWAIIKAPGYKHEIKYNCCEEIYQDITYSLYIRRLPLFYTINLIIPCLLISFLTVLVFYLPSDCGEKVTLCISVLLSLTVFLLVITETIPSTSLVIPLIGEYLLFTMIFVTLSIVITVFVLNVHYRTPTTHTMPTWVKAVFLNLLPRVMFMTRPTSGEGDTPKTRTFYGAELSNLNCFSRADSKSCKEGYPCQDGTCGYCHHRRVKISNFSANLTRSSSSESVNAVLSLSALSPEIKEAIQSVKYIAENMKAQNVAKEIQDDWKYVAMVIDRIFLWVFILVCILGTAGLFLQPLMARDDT
T1 sequence (P12392 21-495): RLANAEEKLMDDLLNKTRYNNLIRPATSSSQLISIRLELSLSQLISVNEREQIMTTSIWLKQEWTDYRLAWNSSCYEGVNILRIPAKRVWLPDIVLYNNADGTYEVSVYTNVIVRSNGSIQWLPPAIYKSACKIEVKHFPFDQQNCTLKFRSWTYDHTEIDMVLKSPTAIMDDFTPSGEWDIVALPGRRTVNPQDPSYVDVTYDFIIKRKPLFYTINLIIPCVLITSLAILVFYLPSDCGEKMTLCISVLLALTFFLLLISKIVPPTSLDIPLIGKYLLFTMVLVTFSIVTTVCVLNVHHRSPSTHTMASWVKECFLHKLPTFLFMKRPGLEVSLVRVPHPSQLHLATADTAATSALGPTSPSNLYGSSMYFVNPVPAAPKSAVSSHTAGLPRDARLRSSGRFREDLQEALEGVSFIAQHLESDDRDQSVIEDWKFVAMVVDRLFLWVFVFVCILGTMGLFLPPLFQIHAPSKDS

For `CC1=CCC2CC1C(c1ccnc3ccccc13)N(C)C2(C)C` (stereo not shown), the IC50 under setting [1] amounted to 1400 nM. `CCN1C(c2ccc(F)c(C(F)(F)F)c2)C2CC(CC=C2C)C1(C)C` (stereo not shown): the IC50 under setting [1] is 760 nM. Take `CC1=CCC2CC1C(c1ccc(F)c(C(F)(F)F)c1)OC2(C)C` (stereo not shown) [drawing 51]: the IC50 (IC50, Example 5 text, α3β4 nAChR) is over 100000 nM.

Consider `CC1=CCC2CC1C(c1ccc(F)c(C(F)(F)F)c1)OC2(C)C` (stereo not shown) [drawing 115], for which the IC50 (α3β4 nAChR IC50, Table 4, R1 and R2 methyl, R3 NH unless otherwise indicated) is over 200000 nM.

Usually IC50 stands for the concentration at which inhibition is half-maximal.
